# Patent publication US20090041672A1, “Drug for Treating or Diagnosing Vascular Lesion in the Skin or the Subcutaneous Soft Tissue Caused by Light Irradiation” (priority 2005, published 2009)
# What was measured:
# [1] = Plasma talaporfin sodium level in cocks at the end of treatment; assay type: in vivo; settings: 2.5 mg/kg intravenous, at end of laser treatment
# Protocol: (§1) As the model of PDT to cutaneous vascular lesion (capillary hemangioma), cock's combs were used. Cock's comb is recognized as a model of cutaneous vascular lesion (capillary hemangioma) in this field. To each cock of 22 to 24 weeks old (bodyweight: about 2.5 kg), talaporfin sodium solution (concentration: 5 mg/ml) was intravenously injected from the brachial vein in an amount of 2.5 mg/kg bodyweight of the cock, in terms of the amount of talaporfin sodium. Immediately after the intravenous injection, the cock's comb was irradiated with a diode laser (wavelength: 664.5 nm±2 nm, irradiation power density: 127 mW/cm^2, energy density: 25 J/cm^2 or 50 J/cm^2). As an experimental group, (i) PDT-performed group was made, and as control groups, (ii) a group to which only the intravenous injection of talaporfin sodium was performed, and (iii) a group to which only laser irradiation was performed, were made. The mean plasma talaporfin sodium level at the end of the treatment was also measured.
# [2] = system: skin of the upper arm; assay: Safety tests to human: PDT on skin of the upper arm of normal individuals; assay type: in vivo
# Protocol: (§2) To 2 normal individuals (Subject A: normal person, Subject B: normal person), talaporfin sodium was intravenously administered at a dose of 0.2 mg/kg. After the administration, the skin of the upper arm was irradiated with a diode laser (irradiation conditions: irradiation energy of 25 J/cm^2 and 50 J/cm^2 at an […] of 127 mW/cm^2, diameter of irradiated spots: 1 cm in both spots). Subject A was followed up for 2 weeks and Subject B was followed up for 2 months.
# [3] = system: cock's combs; assay: PDT of cock's comb, model of cutaneous vascular lesion (capillary hemangioma); assay type: in vivo, cocks
# From the text: Animals Used: cocks (bodyweight: 2.5 to 3.5 kg) of 22 to 24 weeks old
# Photosensitizer: talaporfin sodium
# Laser Used Panalas6405, diode laser, wavelength: 664.5 nm±2 nm, output power: 75-500 mW
# as §1
# Morphological changes during 7 days after the treatment were visually observed, and the cocks were subjected to autopsy 7 days after the treatment. Tissue preparations were stained by hematoxylin eosin staining by a conventional method, and as required, PTAH staining (fibrin staining) and AZAN staining (collagen fiber staining) were added.
# [4] = Plasma drug level in human after PDT; assay type: in vivo; settings: from actually measured plasma level of Example 2
# Protocol: as §2
# Further, it was confirmed from the change with time of the plasma drug level measured after the PDT that the plasma level at which the photosensitive reaction no longer occurs is attained at 24 to 48 hours from the intravenous injection. This period of time is almost coincident with the period of time deduced from the model of pharmacokinetics, so that the correctness of the above-described estimated required shading time was confirmed.
# [5] = PDT-performed group, autopsy 7 days after treatment
# [6] = control group, only drug administration, no laser
substance,measurement,setting,value
Tetrasodium salt of mono-L-aspartyl chlorin e6 [talaporfin sodium],mean plasma talaporfin sodium level at the end of treatment,[1],2.3 µg/mL
same,edema in the irradiated sites and vicinities,"[2]; 0.2 mg/kg i.v. + diode laser 25 and 50 J/cm^2, from immediately after the PDT",slight edema was observed
same,erythema in the irradiated sites,"[2]; 0.2 mg/kg i.v. + diode laser 25 and 50 J/cm^2, up to 2 days after the treatment",slight erythema was observed
same,erythema in the irradiated sites,"[2]; 0.2 mg/kg i.v. + diode laser, one week after the treatment",the erythema had been disappeared
same,side effects at two months from the treatment,"[2]; Subject B, 0.2 mg/kg i.v. + diode laser",no side effects were observed
same,histological findings: blood vessels in the dermis (hematoxylin eosin),[3]; [5],disappearance of vasodilated blood vessels in the dermis was observed
same,histological findings: hyperplasia of collagen fibers in the stroma,[3]; [5],not observed
same,histological findings: stratum corneum epidermidis and stratum basale epidermidis in the irradiated site,[3]; [5],"the continuity of the stratum corneum epidermidis was maintained, and the stratum basale epidermidis was also conserved"
same,histological findings: vascular endothelial cells in the dermis (highly magnified image),[3]; [5],disappearance of vascular endothelial cells was observed
same,visual findings: decoloration reaction,"[3]; PDT-performed group: 2.5 mg/kg i.v. + diode laser 664.5 nm, 127 mW/cm^2, 25 or 50 J/cm^2, observed 7 days",decoloration reaction was observed at the site coincident with the irradiated site
same,histological findings,[3]; [6],No changes were observed
same,visual findings: decoloration reaction,[3]; [6],Decoloration reaction was not observed
same,amount of talaporfin sodium needed in human for attaining the plasma level found in cocks (2.3 μg/mL),[4],0.2 mg/kg
